# Measurements taken from PMC10905675, “INX-315, a Selective CDK2 Inhibitor, Induces Cell Cycle Arrest and Senescence in Solid Tumors” (Cancer Discovery, 2023).
# Assays:
# Test in all cases: SelectScreen LanthaScreen Binding
# Details in all cases: INX-0315 at 100nM
# [1] = biological target: T1, ACVR1 (ALK2) R206H (Homo sapiens, UniProt Q04771, R206H)
# T1 construct: purchased Thermo Fisher Scientific SelectScreen (plus Nanosyn / Reaction Biology for CDK/cyclin lines)
# Summary of the method: (§1)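 Preset conditions throughout. Primary: 100 nmol/L INX-315, 1% DMSO. Secondary: ten doses, top 1 µmol/L, bottom 0.0495 nmol/L.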
# [2] = biological target: T2, ACVR2B (Homo sapiens, UniProt Q13705)
# T2 construct: purchased Thermo Fisher Scientific SelectScreen (plus Nanosyn / Reaction Biology for CDK/cyclin lines)
# T2 sequence (Q13705 19-512): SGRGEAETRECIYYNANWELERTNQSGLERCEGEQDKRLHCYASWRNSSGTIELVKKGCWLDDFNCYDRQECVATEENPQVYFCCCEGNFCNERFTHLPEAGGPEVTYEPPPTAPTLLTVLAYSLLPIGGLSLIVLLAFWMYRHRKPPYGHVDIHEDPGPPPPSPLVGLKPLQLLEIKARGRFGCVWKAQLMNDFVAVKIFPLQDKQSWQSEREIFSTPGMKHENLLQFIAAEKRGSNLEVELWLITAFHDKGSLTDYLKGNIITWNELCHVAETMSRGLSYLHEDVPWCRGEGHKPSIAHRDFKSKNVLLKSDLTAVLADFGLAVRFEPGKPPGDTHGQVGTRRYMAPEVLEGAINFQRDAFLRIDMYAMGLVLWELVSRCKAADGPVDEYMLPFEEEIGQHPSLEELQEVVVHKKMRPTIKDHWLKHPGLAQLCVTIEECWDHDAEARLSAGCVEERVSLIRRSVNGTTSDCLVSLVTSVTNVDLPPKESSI
# Summary of the method: as §1
# [3] = biological target: T3, ALK F1174L (Homo sapiens, UniProt Q9UM73, F1174L)
# T3 construct: purchased Thermo Fisher Scientific SelectScreen (plus Nanosyn / Reaction Biology for CDK/cyclin lines)
# Summary of the method: as §1
# [4] = biological target: T4, ALK T1151_L1152insT (Homo sapiens, UniProt Q9UM73, INS1151T)
# T4 construct: purchased Thermo Fisher Scientific SelectScreen (plus Nanosyn / Reaction Biology for CDK/cyclin lines)
# T4 sequence (Q9UM73 with tags, fused parts or gaps INS1151T limits assumed): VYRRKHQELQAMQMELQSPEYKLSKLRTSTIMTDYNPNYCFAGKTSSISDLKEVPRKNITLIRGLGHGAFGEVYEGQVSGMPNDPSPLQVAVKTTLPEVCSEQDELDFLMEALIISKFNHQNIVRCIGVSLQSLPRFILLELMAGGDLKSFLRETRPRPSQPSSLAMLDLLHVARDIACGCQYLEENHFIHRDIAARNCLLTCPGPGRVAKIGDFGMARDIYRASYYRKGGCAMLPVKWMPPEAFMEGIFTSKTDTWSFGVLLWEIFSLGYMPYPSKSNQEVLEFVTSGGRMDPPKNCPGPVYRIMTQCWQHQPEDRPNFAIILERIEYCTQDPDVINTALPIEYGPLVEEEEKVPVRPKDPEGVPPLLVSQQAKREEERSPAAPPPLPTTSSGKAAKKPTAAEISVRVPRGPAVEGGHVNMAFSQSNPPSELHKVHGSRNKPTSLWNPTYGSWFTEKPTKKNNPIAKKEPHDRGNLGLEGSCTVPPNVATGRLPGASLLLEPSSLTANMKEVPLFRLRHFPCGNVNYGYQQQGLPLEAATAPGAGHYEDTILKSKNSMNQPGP
# Summary of the method: as §1
# [5] = biological target: T5, AMPK (A1/B1/G2) (Homo sapiens, UniProt Q13131)
# T5 construct: purchased Thermo Fisher Scientific SelectScreen (plus Nanosyn / Reaction Biology for CDK/cyclin lines)
# T5 sequence (Q13131 whole entry): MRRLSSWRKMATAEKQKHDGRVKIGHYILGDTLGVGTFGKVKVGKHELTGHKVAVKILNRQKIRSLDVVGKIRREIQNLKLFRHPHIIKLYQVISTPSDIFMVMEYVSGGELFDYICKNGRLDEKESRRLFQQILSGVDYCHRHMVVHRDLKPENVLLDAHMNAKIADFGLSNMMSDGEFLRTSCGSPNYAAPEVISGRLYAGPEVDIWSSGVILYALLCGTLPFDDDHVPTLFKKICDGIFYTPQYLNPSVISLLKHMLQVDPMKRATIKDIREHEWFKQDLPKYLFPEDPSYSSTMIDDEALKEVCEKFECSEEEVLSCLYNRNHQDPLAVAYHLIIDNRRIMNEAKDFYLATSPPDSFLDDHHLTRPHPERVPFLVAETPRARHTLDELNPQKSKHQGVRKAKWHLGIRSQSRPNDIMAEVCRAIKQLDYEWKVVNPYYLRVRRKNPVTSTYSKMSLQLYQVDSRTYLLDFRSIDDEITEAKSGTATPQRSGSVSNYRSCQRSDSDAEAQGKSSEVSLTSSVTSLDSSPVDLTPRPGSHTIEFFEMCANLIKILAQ
# T5 sequence (Q9Y478 whole entry partner): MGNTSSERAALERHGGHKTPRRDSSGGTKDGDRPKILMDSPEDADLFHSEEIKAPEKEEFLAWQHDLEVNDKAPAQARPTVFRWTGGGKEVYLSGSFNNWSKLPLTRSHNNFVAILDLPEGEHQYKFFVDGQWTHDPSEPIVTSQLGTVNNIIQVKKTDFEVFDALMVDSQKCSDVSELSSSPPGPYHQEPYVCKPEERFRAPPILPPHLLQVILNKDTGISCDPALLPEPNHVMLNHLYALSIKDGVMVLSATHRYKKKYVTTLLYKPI
# T5 sequence (Q9UGJ0 whole entry partner): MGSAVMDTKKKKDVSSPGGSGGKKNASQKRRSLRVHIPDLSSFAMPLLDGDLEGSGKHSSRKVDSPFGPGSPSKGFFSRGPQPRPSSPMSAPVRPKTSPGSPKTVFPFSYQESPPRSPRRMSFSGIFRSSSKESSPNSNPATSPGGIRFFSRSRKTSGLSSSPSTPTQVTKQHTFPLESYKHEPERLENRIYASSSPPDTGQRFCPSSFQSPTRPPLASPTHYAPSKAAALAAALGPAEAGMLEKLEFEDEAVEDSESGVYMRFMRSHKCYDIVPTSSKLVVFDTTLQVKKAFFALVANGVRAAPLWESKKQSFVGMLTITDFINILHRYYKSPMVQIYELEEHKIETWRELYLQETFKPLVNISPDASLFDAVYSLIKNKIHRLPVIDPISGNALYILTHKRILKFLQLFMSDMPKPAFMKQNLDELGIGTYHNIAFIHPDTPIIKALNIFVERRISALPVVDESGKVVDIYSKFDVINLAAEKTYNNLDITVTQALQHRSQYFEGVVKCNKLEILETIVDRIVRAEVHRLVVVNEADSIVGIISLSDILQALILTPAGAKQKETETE
# Summary of the method: as §1
# [6] = biological target: T6, ANKK1 (Homo sapiens, UniProt Q8NFD2)
# T6 construct: purchased Thermo Fisher Scientific SelectScreen (plus Nanosyn / Reaction Biology for CDK/cyclin lines)
# Summary of the method: as §1
# [7] = biological target: T7, BMPR1A (ALK3) (Homo sapiens, UniProt P36894)
# T7 construct: purchased Thermo Fisher Scientific SelectScreen (plus Nanosyn / Reaction Biology for CDK/cyclin lines)
# T7 sequence (P36894 24-532): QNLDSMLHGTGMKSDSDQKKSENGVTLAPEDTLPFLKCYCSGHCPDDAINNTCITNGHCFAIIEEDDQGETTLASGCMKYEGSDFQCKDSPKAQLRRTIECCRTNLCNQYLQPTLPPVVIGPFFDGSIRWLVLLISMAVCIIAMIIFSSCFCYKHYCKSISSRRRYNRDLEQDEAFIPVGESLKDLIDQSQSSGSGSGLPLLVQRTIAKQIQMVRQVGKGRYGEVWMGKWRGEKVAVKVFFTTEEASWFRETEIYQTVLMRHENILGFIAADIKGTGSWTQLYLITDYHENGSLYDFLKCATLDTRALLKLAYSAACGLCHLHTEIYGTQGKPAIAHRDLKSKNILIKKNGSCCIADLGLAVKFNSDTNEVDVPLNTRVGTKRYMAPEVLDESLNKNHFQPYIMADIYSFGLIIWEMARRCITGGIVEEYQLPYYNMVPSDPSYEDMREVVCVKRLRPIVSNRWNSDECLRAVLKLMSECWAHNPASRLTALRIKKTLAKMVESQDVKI
# Summary of the method: as §1
# [8] = biological target: T8, BMPR2 (Homo sapiens, UniProt Q13873)
# T8 construct: purchased Thermo Fisher Scientific SelectScreen (plus Nanosyn / Reaction Biology for CDK/cyclin lines)
# Summary of the method: as §1
# [9] = biological target: T9, BRAF (Homo sapiens, UniProt P15056)
# T9 construct: purchased Thermo Fisher Scientific SelectScreen (plus Nanosyn / Reaction Biology for CDK/cyclin lines)
# Summary of the method: as §1
# [10] = biological target: T10, CASK (Homo sapiens, UniProt O14936)
# T10 construct: purchased Thermo Fisher Scientific SelectScreen (plus Nanosyn / Reaction Biology for CDK/cyclin lines)
# Summary of the method: as §1
# [11] = biological target: T11, CDK14 (PFTK1)/cyclin Y (Homo sapiens, UniProt O94921)
# T11 construct: purchased Thermo Fisher Scientific SelectScreen (plus Nanosyn / Reaction Biology for CDK/cyclin lines)
# Summary of the method: as §1
# [12] = biological target: T12, CDK2/cyclin A1 (Homo sapiens, UniProt P24941)
# T12 construct: host or cells: HEK293
# Summary of the method: as §1
# [13] = biological target: T13, CDK3/cyclin E1 (Homo sapiens, UniProt Q00526)
# T13 construct: purchased BPS 40103
# Summary of the method: as §1
# [14] = biological target: T14, CDK5 (Inactive) (Homo sapiens, UniProt Q00535)
# T14 construct: purchased Thermo Fisher Scientific SelectScreen (plus Nanosyn / Reaction Biology for CDK/cyclin lines)
# T14 sequence (Q00535 whole entry): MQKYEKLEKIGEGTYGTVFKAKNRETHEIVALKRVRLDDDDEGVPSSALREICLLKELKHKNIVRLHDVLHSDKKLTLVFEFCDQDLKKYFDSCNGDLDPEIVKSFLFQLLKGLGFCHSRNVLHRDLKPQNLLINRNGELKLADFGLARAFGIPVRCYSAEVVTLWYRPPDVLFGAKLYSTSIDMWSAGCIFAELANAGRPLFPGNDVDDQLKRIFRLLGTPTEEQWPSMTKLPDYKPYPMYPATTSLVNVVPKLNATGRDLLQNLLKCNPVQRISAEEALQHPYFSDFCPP
# Summary of the method: as §1
# [15] = biological target: T15, DDR2 (Homo sapiens, UniProt Q16832)
# T15 construct: purchased Thermo Fisher Scientific SelectScreen (plus Nanosyn / Reaction Biology for CDK/cyclin lines)
# Summary of the method: as §1
# [16] = biological target: T16, DYRK2 (Homo sapiens, UniProt Q92630)
# T16 construct: purchased Thermo Fisher Scientific SelectScreen (plus Nanosyn / Reaction Biology for CDK/cyclin lines)
# Summary of the method: as §1
# [17] = biological target: T17, FGFR3 G697C (Homo sapiens, UniProt P22607, G697C)
# T17 construct: purchased Thermo Fisher Scientific SelectScreen (plus Nanosyn / Reaction Biology for CDK/cyclin lines)
# Summary of the method: as §1
# [18] = system: FLT3 ITD
# Summary of the method: as §1
# [19] = biological target: T18, GAK (Homo sapiens, UniProt O14976)
# T18 construct: purchased Thermo Fisher Scientific SelectScreen (plus Nanosyn / Reaction Biology for CDK/cyclin lines)
# Summary of the method: as §1
# [20] = biological target: T19, HUNK (Homo sapiens, UniProt P57058)
# T19 construct: purchased Thermo Fisher Scientific SelectScreen (plus Nanosyn / Reaction Biology for CDK/cyclin lines)
# Summary of the method: as §1
# [21] = biological target: T20, IRAK3 (Homo sapiens, UniProt Q9Y616)
# T20 construct: purchased Thermo Fisher Scientific SelectScreen (plus Nanosyn / Reaction Biology for CDK/cyclin lines)
# T20 sequence (Q9Y616 whole entry): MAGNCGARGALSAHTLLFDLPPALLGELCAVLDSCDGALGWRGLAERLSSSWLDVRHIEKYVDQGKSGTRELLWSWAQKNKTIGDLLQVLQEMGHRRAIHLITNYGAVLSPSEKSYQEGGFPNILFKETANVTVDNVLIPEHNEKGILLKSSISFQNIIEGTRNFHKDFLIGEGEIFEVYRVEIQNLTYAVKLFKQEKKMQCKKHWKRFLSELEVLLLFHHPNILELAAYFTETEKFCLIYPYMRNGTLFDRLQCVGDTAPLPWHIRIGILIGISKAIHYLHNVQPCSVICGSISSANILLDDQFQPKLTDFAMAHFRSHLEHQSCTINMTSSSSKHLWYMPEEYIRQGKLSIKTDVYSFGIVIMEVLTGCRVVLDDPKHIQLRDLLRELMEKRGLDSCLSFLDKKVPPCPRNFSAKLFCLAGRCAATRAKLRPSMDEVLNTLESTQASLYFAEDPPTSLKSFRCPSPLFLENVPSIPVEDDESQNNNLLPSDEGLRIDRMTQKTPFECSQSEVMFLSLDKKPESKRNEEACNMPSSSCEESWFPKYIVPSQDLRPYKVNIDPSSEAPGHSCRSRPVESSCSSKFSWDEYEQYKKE
# Summary of the method: as §1
# [22] = biological target: T21, KIT D816H (Homo sapiens, UniProt P10721, D816H)
# T21 construct: purchased Thermo Fisher Scientific SelectScreen (plus Nanosyn / Reaction Biology for CDK/cyclin lines)
# T21 sequence (P10721 26-976 D816H): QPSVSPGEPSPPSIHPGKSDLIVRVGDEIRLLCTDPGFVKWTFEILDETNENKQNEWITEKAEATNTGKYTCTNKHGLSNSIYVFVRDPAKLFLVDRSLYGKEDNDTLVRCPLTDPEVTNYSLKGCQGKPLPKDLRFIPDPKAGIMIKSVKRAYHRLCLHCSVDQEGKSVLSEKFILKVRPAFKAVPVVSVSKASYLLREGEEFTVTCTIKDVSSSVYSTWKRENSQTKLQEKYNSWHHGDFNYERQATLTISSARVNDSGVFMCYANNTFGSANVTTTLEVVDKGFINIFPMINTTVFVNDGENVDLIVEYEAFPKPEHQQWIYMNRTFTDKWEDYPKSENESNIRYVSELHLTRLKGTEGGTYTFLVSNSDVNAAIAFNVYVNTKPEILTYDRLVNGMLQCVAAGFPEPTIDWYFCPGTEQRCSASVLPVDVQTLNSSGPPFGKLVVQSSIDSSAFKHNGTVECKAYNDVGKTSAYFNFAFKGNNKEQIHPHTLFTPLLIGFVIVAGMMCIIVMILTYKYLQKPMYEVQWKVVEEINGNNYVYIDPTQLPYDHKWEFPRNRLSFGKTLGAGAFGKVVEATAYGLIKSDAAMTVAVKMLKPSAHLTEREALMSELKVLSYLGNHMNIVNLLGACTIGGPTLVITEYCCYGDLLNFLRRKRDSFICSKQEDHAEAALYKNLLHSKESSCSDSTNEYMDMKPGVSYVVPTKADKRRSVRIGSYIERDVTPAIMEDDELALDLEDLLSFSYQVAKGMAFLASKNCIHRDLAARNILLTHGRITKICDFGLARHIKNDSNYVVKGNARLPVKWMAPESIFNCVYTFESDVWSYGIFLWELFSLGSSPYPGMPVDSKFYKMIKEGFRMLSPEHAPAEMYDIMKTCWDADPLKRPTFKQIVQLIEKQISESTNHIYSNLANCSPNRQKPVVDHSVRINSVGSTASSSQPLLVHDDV
# Summary of the method: as §1
# [23] = biological target: T22, KIT V559D T670I (Homo sapiens, UniProt P10721, T670I/V559D)
# T22 construct: purchased Thermo Fisher Scientific SelectScreen (plus Nanosyn / Reaction Biology for CDK/cyclin lines)
# T22 sequence (P10721 26-976 V559D/T670I): as the sequence (P10721 26-976 D816H) above, with V534D, T645I, H791D counted along it
# Summary of the method: as §1
# [24] = biological target: T23, LATS2 (Homo sapiens, UniProt Q9NRM7)
# T23 construct: purchased Thermo Fisher Scientific SelectScreen (plus Nanosyn / Reaction Biology for CDK/cyclin lines)
# Summary of the method: as §1
# [25] = biological target: T24, MAP2K2 (MEK2) (Homo sapiens, UniProt P36507)
# T24 construct: purchased Thermo Fisher Scientific SelectScreen (plus Nanosyn / Reaction Biology for CDK/cyclin lines)
# Summary of the method: as §1
# [26] = biological target: T25, MAP2K5 (MEK5) (Homo sapiens, UniProt Q13163)
# T25 construct: purchased Thermo Fisher Scientific SelectScreen (plus Nanosyn / Reaction Biology for CDK/cyclin lines)
# Summary of the method: as §1
# [27] = biological target: T26, MAP2K6 (MKK6) S207E T211E (Homo sapiens, UniProt P52564, S207E/T211E)
# T26 construct: purchased Thermo Fisher Scientific SelectScreen (plus Nanosyn / Reaction Biology for CDK/cyclin lines)
# Summary of the method: as §1
# [28] = biological target: T27, MAP3K11 (MLK3) (Homo sapiens, UniProt Q16584)
# T27 construct: purchased Thermo Fisher Scientific SelectScreen (plus Nanosyn / Reaction Biology for CDK/cyclin lines)
# Summary of the method: as §1
# [29] = biological target: T28, MYLK (MLCK) (Homo sapiens, UniProt Q15746)
# T28 construct: purchased Thermo Fisher Scientific SelectScreen (plus Nanosyn / Reaction Biology for CDK/cyclin lines)
# Summary of the method: as §1
# [30] = biological target: T29, PKMYT1 (Homo sapiens, UniProt Q99640)
# T29 construct: purchased Thermo Fisher Scientific SelectScreen (plus Nanosyn / Reaction Biology for CDK/cyclin lines)
# Summary of the method: as §1
# [31] = biological target: T30, PKN2 (PRK2) (Homo sapiens, UniProt Q16513)
# T30 construct: purchased Thermo Fisher Scientific SelectScreen (plus Nanosyn / Reaction Biology for CDK/cyclin lines)
# Summary of the method: as §1
# [32] = biological target: T31, STK32B (YANK2) (Homo sapiens, UniProt Q9NY57)
# T31 construct: purchased Thermo Fisher Scientific SelectScreen (plus Nanosyn / Reaction Biology for CDK/cyclin lines)
# Summary of the method: as §1
# [33] = biological target: T32, STK33 (Homo sapiens, UniProt Q9BYT3)
# T32 construct: purchased Thermo Fisher Scientific SelectScreen (plus Nanosyn / Reaction Biology for CDK/cyclin lines)
# Summary of the method: as §1
# [34] = biological target: T33, TEK (TIE2) R849W (Homo sapiens, UniProt Q02763, R849W)
# T33 construct: purchased Thermo Fisher Scientific SelectScreen (plus Nanosyn / Reaction Biology for CDK/cyclin lines)
# Summary of the method: as §1
# [35] = biological target: T34, TGFBR2 (Homo sapiens, UniProt P37173)
# T34 construct: purchased Thermo Fisher Scientific SelectScreen (plus Nanosyn / Reaction Biology for CDK/cyclin lines)
# Summary of the method: as §1
# [36] = biological target: T35, TNK2 (ACK) (Homo sapiens, UniProt Q07912)
# T35 construct: purchased Thermo Fisher Scientific SelectScreen (plus Nanosyn / Reaction Biology for CDK/cyclin lines)
# Summary of the method: as §1
# [37] = biological target: T36, WNK1 (Homo sapiens, UniProt Q9H4A3)
# T36 construct: purchased Thermo Fisher Scientific SelectScreen (plus Nanosyn / Reaction Biology for CDK/cyclin lines)
# Summary of the method: as §1
structure (smiles),measurement,setting,value
NS(=O)(=O)c1ccc(Nc2ncc3cc4n(c3n2)C2(CCCCC2)C(=O)NN4)cc1 [INX-315],inhibition at 0.1 µM,[1],-1%
same,inhibition at 0.1 µM,[2],-2%
same,inhibition at 0.1 µM,[3],12%
same,inhibition at 0.1 µM,[4],6%
same,inhibition at 0.1 µM,[5],15%
same,inhibition at 0.1 µM,[6],2%
same,inhibition at 0.1 µM,[7],8%
same,inhibition at 0.1 µM,[8],17%
same,inhibition at 0.1 µM,[9],-1%
same,inhibition at 0.1 µM,[10],-3%
same,inhibition at 0.1 µM,[11],24%
same,inhibition at 0.1 µM,[12],94%
same,inhibition at 0.1 µM,[13],88%
same,inhibition at 0.1 µM,[14],80%
same,inhibition at 0.1 µM,[15],18%
same,inhibition at 0.1 µM,[16],-4%
same,inhibition at 0.1 µM,[17],13%
same,% Inhibition Avg,[18],36%
same,inhibition at 0.1 µM,[19],38%
same,inhibition at 0.1 µM,[20],-5%
same,inhibition at 0.1 µM,[21],45%
same,inhibition at 0.1 µM,[22],38%
same,inhibition at 0.1 µM,[23],16%
same,inhibition at 0.1 µM,[24],8%
same,inhibition at 0.1 µM,[25],0%
same,inhibition at 0.1 µM,[26],27%
same,inhibition at 0.1 µM,[27],7%
same,inhibition at 0.1 µM,[28],13%
same,inhibition at 0.1 µM,[29],6%
same,inhibition at 0.1 µM,[30],-2%
same,inhibition at 0.1 µM,[31],11%
same,inhibition at 0.1 µM,[32],3%
same,inhibition at 0.1 µM,[33],5%
same,inhibition at 0.1 µM,[34],7%
same,inhibition at 0.1 µM,[35],7%
same,inhibition at 0.1 µM,[36],0%
same,inhibition at 0.1 µM,[37],4%
